Laboratory results reported in PubChem BioAssay (NCI).
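Grown in 96-well plates, cells were treated for 48 hours with each compound at five concentrations. Insufficient inhibition: endpoint recorded as highest concentration tested. TGI: total growth inhibition.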

Assays:
Assay in all cases: NCI tumour cell line growth inhibition, 48 h
HOP-62 NSCLC = tested on: HOP-62 NSCLC
SF-268 CNS = tested on: SF-268 CNS
OVCAR-5 ovarian = tested on: OVCAR-5 ovarian
XF 498 CNS = tested on: XF 498 CNS
SNB-75 CNS = tested on: SNB-75 CNS
ACHN renal = tested on: ACHN renal
HCT-116 colon = tested on: HCT-116 colon
DMS 114 small cell lung = tested on: DMS 114 small cell lung
SK-MEL-5 melanoma = tested on: SK-MEL-5 melanoma
A549 NSCLC = tested on: A549 NSCLC
EKVX NSCLC = tested on: EKVX NSCLC
DMS 273 small cell lung = tested on: DMS 273 small cell lung
K-562 leukemia = tested on: K-562 leukemia
OVCAR-8 ovarian = tested on: OVCAR-8 ovarian
KM12 colon = tested on: KM12 colon
UO-31 renal = tested on: UO-31 renal
NCI-H226 lung = tested on: NCI-H226 lung
IGROV1 ovarian = tested on: IGROV1 ovarian
NCI-H522 lung = tested on: NCI-H522 lung
MALME-3M melanoma = tested on: MALME-3M melanoma
TK-10 renal = tested on: TK-10 renal
NCI-H23 lung = tested on: NCI-H23 lung
M19-MEL melanoma = tested on: M19-MEL melanoma
COLO 205 colon = tested on: COLO 205 colon
SK-OV-3 ovarian = tested on: SK-OV-3 ovarian
SF-539 CNS = tested on: SF-539 CNS
RPMI-8226 leukemia = tested on: RPMI-8226 leukemia
CAKI-1 renal = tested on: CAKI-1 renal
OVCAR-3 ovarian = tested on: OVCAR-3 ovarian
SK-MEL-2 melanoma = tested on: SK-MEL-2 melanoma
SK-MEL-28 melanoma = tested on: SK-MEL-28 melanoma
A498 renal = tested on: A498 renal
SW-620 colon = tested on: SW-620 colon
CCRF-CEM leukemia = tested on: CCRF-CEM leukemia
UACC-62 melanoma = tested on: UACC-62 melanoma
HOP-18 NSCLC = tested on: HOP-18 NSCLC
SNB-78 CNS = tested on: SNB-78 CNS
HCT-15 colon = tested on: HCT-15 colon
HL-60(TB) leukemia = tested on: HL-60(TB) leukemia
SF-295 CNS = tested on: SF-295 CNS
M14 melanoma = tested on: M14 melanoma
SNB-19 CNS = tested on: SNB-19 CNS
MOLT-4 leukemia = tested on: MOLT-4 leukemia
HT29 colon = tested on: HT29 colon
786-0 renal = tested on: 786-0 renal
LXFL 529 NSCLC = tested on: LXFL 529 NSCLC
DLD-1 colon = tested on: DLD-1 colon
SN12C renal = tested on: SN12C renal
KM20L2 colon = tested on: KM20L2 colon
NCI-H460 lung = tested on: NCI-H460 lung
U251 CNS = tested on: U251 CNS
OVCAR-4 ovarian = tested on: OVCAR-4 ovarian
HOP-92 NSCLC = tested on: HOP-92 NSCLC
UACC-257 melanoma = tested on: UACC-257 melanoma

With `C=C1CCC2[C@@H](CCC3[C@]2(C)CCC[C@]3(C)C(=O)OC)C1CCO` (some centres undefined) the TGI (HOP-62 NSCLC) was 41.7 µM, the TGI (SF-268 CNS) was 29.1 µM and the TGI (OVCAR-5 ovarian) was 33.2 µM. It also gave a TGI (XF 498 CNS) of 22.6 µM, a TGI (SNB-75 CNS) of 19.7 µM and a TGI (ACHN renal) of 29.4 µM. For the same compound, the TGI (HCT-116 colon) was 19.2 µM, the TGI (DMS 114 small cell lung) was 20.3 µM and the TGI (SK-MEL-5 melanoma) was 17.5 µM. It also gave a TGI (A549 NSCLC) of 32.5 µM, a TGI (EKVX NSCLC) of 37.9 µM and a TGI (DMS 273 small cell lung) of 24.9 µM. The TGI (K-562 leukemia) was 26.1 µM, the TGI (OVCAR-8 ovarian) was 37.7 µM and the TGI (KM12 colon) was 25.2 µM. It also gave a TGI (UO-31 renal) of 31.7 µM, a TGI (NCI-H226 lung) of 32.1 µM and a TGI (IGROV1 ovarian) of 29.6 µM. The TGI (NCI-H522 lung) was 21.6 µM, the TGI (MALME-3M melanoma) was 35.8 µM and the TGI (TK-10 renal) was 34.1 µM. The TGI (NCI-H23 lung) was 23.2 µM, the TGI (M19-MEL melanoma) was 29.9 µM and the TGI (COLO 205 colon) was 27.9 µM. The TGI (SK-OV-3 ovarian) was 45.3 µM, the TGI (SF-539 CNS) was 26.3 µM and the TGI (RPMI-8226 leukemia) was 17 µM. It also gave a TGI (CAKI-1 renal) of 24.9 µM, a TGI (OVCAR-3 ovarian) of 26 µM and a TGI (SK-MEL-2 melanoma) of 36.6 µM. It also gave a TGI (SK-MEL-28 melanoma) of 28.1 µM, a TGI (A498 renal) of 30.6 µM and a TGI (SW-620 colon) of 26.9 µM. For the same compound, the TGI (CCRF-CEM leukemia) was 33.1 µM, the TGI (UACC-62 melanoma) was 27.5 µM and the TGI (HOP-18 NSCLC) was 29.9 µM. For the same compound, the TGI (SNB-78 CNS) was 36.3 µM, the TGI (HCT-15 colon) was 27.3 µM and the TGI (HL-60(TB) leukemia) was 9.36 µM. It also gave a TGI (SF-295 CNS) of 30.9 µM, a TGI (M14 melanoma) of 26.5 µM and a TGI (SNB-19 CNS) of 28 µM. For the same compound, the TGI (MOLT-4 leukemia) was 17.9 µM, the TGI (HT29 colon) was 17.8 µM and the TGI (786-0 renal) was 49.2 µM. The TGI (LXFL 529 NSCLC) was 21 µM, the TGI (DLD-1 colon) was 46.8 µM and the TGI (SN12C renal) was 27.5 µM. The TGI (KM20L2 colon) was 22.8 µM, the TGI (NCI-H460 lung) was 37.2 µM and the TGI (U251 CNS) was 26.4 µM. For the same compound, the TGI (OVCAR-4 ovarian) was 26.6 µM, the TGI (HOP-92 NSCLC) was 20.1 µM and the TGI (UACC-257 melanoma) was 18.6 µM.
